Literature values, collected in patent publication US20170333404A1, “IMPROVED FORMULATIONS OF VEMURAFENIB AND METHODS OF MAKING THE SAME” (DISPERSOL TECHNOLOGIES, LLC, priority 2014, published 2017).

Key:
[1] = compared to the crystalline form
[2] = test system: BRAFV600E/K mutant advanced or malignant melanoma; settings: Trametinib arm
melanoma = settings: at 5 years, adjuvant treatment
[3] = not given; remark: listed apart in the source
V600E mutation in b-raf = settings: patients with a V600E mutation in b-raf

Compound: CCCS(=O)(=O)Nc1ccc(F)c(C(=O)c2c[nH]c3ncc(-c4ccc(Cl)cc4)cc23)c1F [amorphous form of vemurafenib, vemurafenib]
- solubility in water [1]: improved solubility in water

Compound: CC(=O)Nc1cccc(-n2c(=O)n(C3CC3)c(=O)c3c(Nc4ccc(I)cc4F)n(C)c(=O)c(C)c32)c1 [Trametinib]
- Grade 3 adverse effect: hypertension [2]: 12%
- Grade 3 adverse effect: rash [2]: 7%

Compound: interferon
- increase in survival (melanoma): 3%

Compound: CCCS(=O)(=O)Nc1ccc(F)c(C(=O)c2c[nH]c3ncc(-c4ccc(Cl)cc4)cc23)c1F [vemurafenib]
- arthralgia, patients (BRIM-2, 132 patients): 58%
- photosensitivity, patients (BRIM-2, 132 patients): 52%
- skin rash, patients (BRIM-2, 132 patients): 52%
- patients in whom dose modification was necessary (BRIM-2, to manage side effects): 45%
- programmed cell death (melanoma cell lines; melanoma cell lines): cause programmed cell death
- inhibition of melanoma cells (melanoma cell lines; melanoma cells without BRAF V600E/V600K mutations): not inhibited
- patients with skin lesions that may need surgical removal ([3]; at MTD of 960 mg twice a day): 31%
- maximum tolerated dose (MTD) ([3]; patients): 960 mg twice a day
- patients showing partial to complete regression (V600E mutation in b-raf): ~80%
- patients with reduced numbers of cancer cells (advanced melanoma; group of 16 patients with advanced melanoma): over half
- median increased survival time over the control group (advanced melanoma; treated group vs control group): 6 months
